Results: patent US8383581B2, “Short-chain peptides as parathyroid hormone (PTH) receptor agonist” (Cadila Healthcare Limited, priority 2009, dated 2013)
Where a SMILES comes first, the peptide text is derived from it. [ ]: non-standard residue; d: D form. ξ: configuration not given here. ξαMeBip(2'-Et,4'-OMe) = CCc1cc(OC)ccc1-c1ccc(CC(C)(N)C(=O)O)cc1; ξBip(2'-Et-4'-OMe) = CCc1cc(OC)ccc1-c1ccc(CC(N)C(=O)O)cc1; ξαMePhe(2,6-F2) = CC(N)(Cc1c(F)cccc1F)C(=O)O; ξαMe(hhPhe) = CC(N)(CCCc1ccccc1)C(=O)O; ξαMePhe(2-F) = CC(N)(Cc1ccccc1F)C(=O)O; hArg = N=C(N)NCCCC[C@H](N)C(=O)O; hCit = NC(=O)NCCCC[C@H](N)C(=O)O; Cit = NC(=O)NCCC[C@H](N)C(=O)O; ξhhPhe = NC(CCCc1ccccc1)C(=O)O; NMeV = CN[C@H](C(=O)O)C(C)C; ξαMeNle = CCCCC(C)(N)C(=O)O; Nle = CCCC[C@H](N)C(=O)O; Orn = NCCC[C@H](N)C(=O)O; Ac5c = NC1(C(=O)O)CCCC1; Aib = CC(C)(N)C(=O)O

System: ovariectomised (OVX) rats
Assay: In vivo anti-osteoporosis activity testing in OVX rat model (serum calcium, phosphate, bone parameters)
Parameters: species or system Female Wistar Rats
Conditions: po
Description: c) In Vivo Anti-Osteoporosis Activity Testing in OVX Rat Model: The ovariectomised (OVX) rats were used to study anti-osteoporosis activity of test compounds (short-chain peptides) in vivo. The OVX rats develop osteopenia due to ovarian hormone deficiency. Osteopenia can be detected as early as 14 days post OVX, increase for the next 100 days and then stabilised (Wronski T. J., et al., Calcif. Tissue Int., 43(3), 1988, 179-183). Detailed Study Protocol to Evaluate the Effects of Anabolic Therapy on Bone Markers and Histomorphometry in OVX Animals: 10 to 11 weeks old Female Wistar Rats (150-200 g) were used. The animals were kept in individually ventilated cages in a room with controlled temperature (23°±3° C.), lighting (12:12 h light-dark cycle) and relative humidity (55±10%). Animals had free access to standard rat chow and water. Protocol for use of animals for conducting this study has been reviewed and approved by Institutional Animal Ethics Committee (IAEC). The animals were marked with picric acid for identification and acclimatized to experimental room conditions for 2 days prior to initiation of the study. For the induction of osteoporosis, rats were bilaterally ovariectomised under anesthesia. For Ovariectomy, Incision was made on dorsa-lateral side near lumbar region of animal. After that, ovary was excised and the veins were tied with ligature before removing ovary to prevent blood loss. Then incision was sutured back with ligature. After Bilateral ovariectomy, animals were allowed to rest for 4 weeks. They were then divided into different groups (n=9) based on their body weight. The groups consisted of a no treatment control, PTH as standard and one or two groups of test compounds (short-chain peptides). The treatment was given for the duration of 6 weeks. At the last day of treatment animals were kept overnight in metabolic cages under fasting for the collection of Urine. Next day, blood was collected after 24 hours of last dosing and animals were sacrificed. Changes in biochemical parameters and bone turnover parameters (Increase in serum Calcium and decrease in Phosphate levels, Acid Phosphatase and TRAP) were evaluated in the urine and serum. After sacrificing, intact femur and tibial bones are removed and cleaned from adherent tissues, muscles and tendons; weighed and collected in formal saline (10% formaldehyde solution). Lumbar vertebra (L5) was excised, carefully cleaned and collected in formal saline. Femur, tibia and Lumbar vertebra-5 (L5) were later processed for histomorphometric evaluation (Zhang L., et al., Tohoku J Exp Med., 1998, 186(2), 131-41; Tanizawa T., et al., Toxicol Lett., 1998, 102, 399-403).

## CCCC[C@H](NC(=O)[C@H](CC(C)C)NC(=O)[C@H](CCC(N)=O)NC(=O)[C@@H](NC(=O)[C@H](CCC(=O)O)NC(=O)C(C)(C)NC(=O)[C@@H](NC(=O)C1(N)CCCC1)C(C)C)[C@@H](C)CC)C(=O)N[C@@H](Cc1c[nH]cn1)C(=O)N[C@@H](CCC(N)=O)C(=O)N[C@@H](CCCCNC(N)=O)C(=O)N[C@@H](C)C(=O)N[C@@H](CCCNC(=N)N)C(=O)NC(Cc1ccc(-c2ccc(OC)cc2CC)cc1)C(=O)NC(CCCc1ccccc1)C(N)=O (stereo partly shown) [Seq. ID. 779] (H-[Ac5c]V[Aib]EIQL[Nle]HQ[hCit]AR[ξBip(2'-Et-4'-OMe)][ξhhPhe]-NH2)
1 mg/kg
  % decrease in serum PO4 Levels (mg/dl) vs control: 56%
  % increase in serum Ca^2+ Levels (mg/dl) vs control: 67%

## CCCC[C@H](NC(=O)[C@H](CC(C)C)NC(=O)[C@H](CCC(N)=O)NC(=O)[C@@H](NC(=O)[C@H](CCC(=O)O)NC(=O)C(C)(C)NC(=O)[C@@H](NC(=O)C(C)(C)N)C(C)C)[C@@H](C)CC)C(=O)N[C@@H](Cc1c[nH]cn1)C(=O)N[C@@H](CCC(N)=O)C(=O)NC(C)(Cc1c(F)cccc1F)C(=O)N[C@@H](C)C(=O)NC(C)(C)C(=O)NC(Cc1ccc(-c2ccc(OC)cc2CC)cc1)C(=O)NC(CCCc1ccccc1)C(N)=O (stereo partly shown) [Seq. ID. 798] (H-[Aib]V[Aib]EIQL[Nle]HQ[ξαMePhe(2,6-F2)]A[Aib][ξBip(2'-Et-4'-OMe)][ξhhPhe]-NH2)
5 mg/kg
  % decrease in serum PO4 Levels (mg/dl) vs control: 82%
  % increase in serum Ca^2+ Levels (mg/dl) vs control: 88%

## CCCC[C@H](NC(=O)[C@H](CC(C)C)NC(=O)[C@H](CCC(N)=O)NC(=O)[C@@H](NC(=O)[C@H](CCC(=O)O)NC(=O)C(C)(C)NC(=O)[C@@H](NC(=O)C1(N)CCCC1)C(C)C)[C@@H](C)CC)C(=O)N[C@@H](Cc1c[nH]cn1)C(=O)N[C@@H](CCC(N)=O)C(=O)NC(C)(Cc1c(F)cccc1F)C(=O)N[C@@H](C)C(=O)NC(C)(Cc1c(F)cccc1F)C(=O)NC(Cc1ccc(-c2ccc(OC)cc2CC)cc1)C(=O)NC(CCCc1ccccc1)C(N)=O (stereo partly shown) [Seq. ID. 801] (H-[Ac5c]V[Aib]EIQL[Nle]HQ[ξαMePhe(2,6-F2)]A[ξαMePhe(2,6-F2)][ξBip(2'-Et-4'-OMe)][ξhhPhe]-NH2)
3 mg/kg
  % decrease in serum PO4 Levels (mg/dl) vs control: 65%
  % increase in serum Ca^2+ Levels (mg/dl) vs control: 59%

## CCCC[C@H](NC(=O)C(C)(Cc1c(F)cccc1F)NC(=O)[C@H](CCC(N)=O)NC(=O)[C@@H](NC(=O)[C@H](CCC(=O)O)NC(=O)C(C)(C)NC(=O)[C@@H](NC(=O)C(C)(C)N)C(C)C)[C@@H](C)CC)C(=O)N[C@@H](Cc1c[nH]cn1)C(=O)N[C@@H](CCC(N)=O)C(=O)N[C@@H](CCCCNC(=N)N)C(=O)N[C@@H](C)C(=O)NC(C)(C)C(=O)NC(Cc1ccc(-c2ccc(OC)cc2CC)cc1)C(=O)NC(CCCc1ccccc1)C(N)=O (stereo partly shown) [Seq. ID. 814] (H-[Aib]V[Aib]EIQ[ξαMePhe(2,6-F2)][Nle]HQ[hArg]A[Aib][ξBip(2'-Et-4'-OMe)][ξhhPhe]-NH2)
0.02 mg/kg
  % decrease in serum PO4 Levels (mg/dl) vs control: 95%
  % increase in serum Ca^2+ Levels (mg/dl) vs control: 99%

## CCCC[C@H](NC(=O)C(C)(Cc1c(F)cccc1F)NC(=O)[C@H](CCC(N)=O)NC(=O)[C@@H](NC(=O)[C@H](CCC(=O)O)NC(=O)C(C)(C)NC(=O)[C@@H](NC(=O)C1(N)CCCC1)C(C)C)[C@@H](C)CC)C(=O)N[C@@H](Cc1c[nH]cn1)C(=O)N[C@@H](CCC(N)=O)C(=O)N[C@@H](CCCN)C(=O)N[C@@H](C)C(=O)NC(C)(Cc1c(F)cccc1F)C(=O)NC(Cc1ccc(-c2ccc(OC)cc2CC)cc1)C(=O)NC(CCCc1ccccc1)C(N)=O (stereo partly shown) [Seq. ID. 833] (H-[Ac5c]V[Aib]EIQ[ξαMePhe(2,6-F2)][Nle]HQ[Orn]A[ξαMePhe(2,6-F2)][ξBip(2'-Et-4'-OMe)][ξhhPhe]-NH2)
0.05 mg/kg
  % decrease in serum PO4 Levels (mg/dl) vs control: 78%
  % increase in serum Ca^2+ Levels (mg/dl) vs control: 86%

## CCCC[C@H](NC(=O)C(C)(Cc1c(F)cccc1F)NC(=O)[C@H](CCC(N)=O)NC(=O)[C@@H](NC(=O)[C@H](CCC(=O)O)NC(=O)C(C)(C)NC(=O)[C@@H](NC(=O)C1(N)CCCC1)C(C)C)[C@@H](C)CC)C(=O)N[C@@H](Cc1c[nH]cn1)C(=O)N[C@@H](CCC(N)=O)C(=O)N[C@@H](CCCNC(N)=O)C(=O)N[C@@H](C)C(=O)NC(C)(C)C(=O)NC(Cc1ccc(-c2ccc(OC)cc2CC)cc1)C(=O)NC(CCCc1ccccc1)C(N)=O (stereo partly shown) [Seq. ID. 847] (H-[Ac5c]V[Aib]EIQ[ξαMePhe(2,6-F2)][Nle]HQ[Cit]A[Aib][ξBip(2'-Et-4'-OMe)][ξhhPhe]-NH2)
0.5 mg/kg
  % decrease in serum PO4 Levels (mg/dl) vs control: 79%
  % increase in serum Ca^2+ Levels (mg/dl) vs control: 77%

## CCCC[C@H](NC(=O)[C@H](CC(C)C)NC(=O)[C@H](CCC(N)=O)NC(=O)[C@@H](NC(=O)[C@H](CCC(=O)O)NC(=O)C(C)(C)NC(=O)[C@@H](NC(=O)C(C)(C)NC(=O)[C@@H](N)C(C)C)C(C)C)[C@@H](C)CC)C(=O)N[C@@H](Cc1c[nH]cn1)C(=O)N[C@@H](CCC(N)=O)C(=O)N[C@@H](CCCCNC(=N)N)C(=O)N[C@@H](C)C(=O)N[C@@H](CCCCN)C(=O)NC(Cc1ccc(-c2ccc(OC)cc2CC)cc1)C(=O)NC(C)(CCCc1ccccc1)C(N)=O (stereo partly shown) [Seq. ID. 893] (H-V[Aib]V[Aib]EIQL[Nle]HQ[hArg]AK[ξBip(2'-Et-4'-OMe)][ξαMe(hhPhe)]-NH2)
0.3 mg/kg
  % decrease in serum PO4 Levels (mg/dl) vs control: 89%
  % increase in serum Ca^2+ Levels (mg/dl) vs control: 108%

## CCc1cc(OC)ccc1-c1ccc(CC(C)(NC(=O)[C@H](CCCCNC(=N)N)NC(=O)[C@H](C)NC(=O)[C@H](CCCCNC(=N)N)NC(=O)[C@H](CCC(N)=O)NC(=O)[C@H](Cc2c[nH]cn2)NC(=O)[C@H](CCSC)NC(=O)[C@H](CC(C)C)NC(=O)[C@H](CCC(N)=O)NC(=O)[C@@H](NC(=O)[C@H](CCC(=O)O)NC(=O)C(C)(C)NC(=O)[C@@H](NC(=O)C(C)(C)NC(=O)[C@@H](N)C(C)C)C(C)C)[C@@H](C)CC)C(=O)NC(CCCc2ccccc2)C(N)=O)cc1 (stereo partly shown) [Seq. ID. 902] (H-V[Aib]V[Aib]EIQLMHQ[hArg]A[hArg][ξαMeBip(2'-Et,4'-OMe)][ξhhPhe]-NH2)
0.8 mg/kg
  % decrease in serum PO4 Levels (mg/dl) vs control: 98%
  % increase in serum Ca^2+ Levels (mg/dl) vs control: 110%

## CCCCC(C)(NC(=O)[C@H](CC(C)C)NC(=O)[C@H](CCC(N)=O)NC(=O)[C@@H](NC(=O)[C@H](CCC(=O)O)NC(=O)C(C)(C)NC(=O)[C@@H](NC(=O)C(C)(C)N)C(C)C)[C@@H](C)CC)C(=O)N[C@@H](Cc1c[nH]cn1)C(=O)N[C@@H](CCC(N)=O)C(=O)N[C@@H](CCCCNC(=N)N)C(=O)N[C@@H](C)C(=O)N[C@@H](CCCCNC(=N)N)C(=O)NC(C)(Cc1ccc(-c2ccc(OC)cc2CC)cc1)C(=O)NC(CCCc1ccccc1)C(N)=O (stereo partly shown) [Seq. ID. 911] (H-[Aib]V[Aib]EIQL[ξαMeNle]HQ[hArg]A[hArg][ξαMeBip(2'-Et,4'-OMe)][ξhhPhe]-NH2)
10 mg/kg
  % decrease in serum PO4 Levels (mg/dl) vs control: 97%
  % increase in serum Ca^2+ Levels (mg/dl) vs control: 121%

## CCCCC(C)(NC(=O)[C@H](CC(C)C)NC(=O)[C@H](CCC(N)=O)NC(=O)[C@@H](NC(=O)[C@H](CCC(=O)O)NC(=O)C(C)(C)NC(=O)[C@@H](NC(=O)C1(NC(=O)[C@@H](NC)C(C)C)CCCC1)C(C)C)[C@@H](C)CC)C(=O)N[C@@H](Cc1c[nH]cn1)C(=O)N[C@@H](CCC(N)=O)C(=O)N[C@@H](CCCCNC(=N)N)C(=O)N[C@@H](C)C(=O)N[C@@H](CCCCNC(=N)N)C(=O)NC(Cc1ccc(-c2ccc(OC)cc2CC)cc1)C(=O)NC(C)(CCCc1ccccc1)C(N)=O (stereo partly shown) [Seq. ID. 929] (H-[NMeV][Ac5c]V[Aib]EIQL[ξαMeNle]HQ[hArg]A[hArg][ξBip(2'-Et-4'-OMe)][ξαMe(hhPhe)]-NH2)
2 mg/kg
  % decrease in serum PO4 Levels (mg/dl) vs control: 90%
  % increase in serum Ca^2+ Levels (mg/dl) vs control: 121%

## CCCCC(C)(NC(=O)[C@H](CC(C)C)NC(=O)[C@H](CCC(N)=O)NC(=O)[C@@H](NC(=O)[C@H](CCC(=O)O)NC(=O)C(C)(C)NC(=O)[C@@H](NC(=O)C1(NC(=O)[C@@H](NC)C(C)C)CCCC1)C(C)C)[C@@H](C)CC)C(=O)N[C@@H](Cc1c[nH]cn1)C(=O)N[C@@H](CCC(N)=O)C(=O)N[C@@H](CCCCNC(=N)N)C(=O)N[C@@H](C)C(=O)N[C@@H](CCCCNC(=N)N)C(=O)NC(C)(Cc1ccccc1F)C(=O)NC(C)(CCCc1ccccc1)C(N)=O (stereo partly shown) [Seq. ID. 941] (H-[NMeV][Ac5c]V[Aib]EIQL[ξαMeNle]HQ[hArg]A[hArg][ξαMePhe(2-F)][ξαMe(hhPhe)]-NH2)
0.9 mg/kg
  % decrease in serum PO4 Levels (mg/dl) vs control: 95%
  % increase in serum Ca^2+ Levels (mg/dl) vs control: 99%
